Here are results for five molecules from patent publication EP0994109A2, “1-(3-(1-Pyrrolidinyl)propyl)-3-ethylcarbodiimide and a solid phase coupling agent” (ELI LILLY AND COMPANY, priority 1995, dated 1997).

Where a name gives a salt, the structure may show the parent alone.

This assay has as its system neuronal protein extravasation. The assay is described as follows: Protein extravasation in dura after electrical stimulation of the trigeminal ganglion. Format: in vivo, rats or guinea pigs. The following applies: dose that inhibited the extravasation by 50%, approximated from dose-response curve. The procedure: Harlan Sprague-Dawley rats (225-325 g) or guinea pigs from Charles River Laboratories (225-325 g) were anesthetized with sodium pentobarbital intraperitoneally (65 mg/kg or 45 mg/kg respectively) and placed in a stereotaxic frame (David Kopf Instruments) with the incisor bar set at -3.5 mm for rats or -4.0 mm for guinea pigs. Following a midline sagital scalp incision, two pairs of bilateral holes were drilled through the skull (6 mm posteriorly, 2.0 and 4.0 mm laterally in rats; 4 mm posteriorly and 3.2 and 5.2 mm laterally in guinea pigs, all coordinates referenced to bregma). Pairs of stainless steel stimulating electrodes (Rhodes Medical Systems, Inc.) were lowered through the holes in both hemispheres to a depth of 9 mm (rats) or 10.5 mm (guinea pigs) from dura.
The femoral vein was exposed and a dose of the test compound was injected intravenously (1 mL/kg). Approximately 7 minutes later, a 50 mg/kg dose of Evans Blue, a fluorescent dye, was also injected intravenously. The Evans Blue complexed with proteins in the blood and functioned as a marker for protein extravasation. Exactly 10 minutes post-injection of the test compound, the left trigeminal ganglion was stimulated for 3 minutes at a current intensity of 1.0 mA (5 Hz, 4 msec duration) with a Model 273 potentiostat/ galvanostat (EG&G Princeton Applied Research).
Fifteen minutes following stimulation, the animals were killed and exsanguinated with 20 mL of saline. The top of the skull was removed to facilitate the collection of the dural membranes. The membrane samples were removed from both hemispheres, rinsed with water, and spread flat on microscopic slides. Once dried, the tissues were coverslipped with a 70% glycerol/water solution.
A fluorescence microscope (Zeiss) equipped with a grating monochromator and a spectrophotometer was used to quantify the amount of Evans Blue dye in each sample. An excitation wavelength of approximately 535 nm was utilized and the emission intensity at 600 nm was determined. The microscope was equipped with a motorized stage and also interfaced with a personal computer. This facilitated the computer-controlled movement of the stage with fluorescence measurements at 25 points (500 µm steps) on each dural sample. The mean and standard deviation of the measurements was determined by the computer.
The extravasation induced by the electrical stimulation of the trigeminal ganglion was an ipsilateral effect (i.e. occurs only on the side of the dura in which the trigeminal ganglion was stimulated). This allows the other (unstimulated) half of the dura to be used as a control. The ratio of the amount of extravasation in the dura from the stimulated side compared to the unstimulated side dura was calculated. Saline controls yielded a ratio of approximately 2.0 in rats and 1.8 in guinea pigs. […]
Consider `CN(C)C1CCc2[nH]c3ccc(O)cc3c2C1` (centres unmarked) [Compound V, 6-hydroxy-3-dimethylamino-1,2,3,4-tetrahydrocarbazole], for which the “i.v. ID50” value turned out to be 8.7e-09 mmol/kg.
Consider `O=C(O)C(=O)O.Oc1ccc2[nH]cc(C3CCNCC3)c2c1` [Compound III, 5-hydroxy-3-(4-piperidinyl)-1H-indole oxalate], for which the “i.v. ID50” value is 8.9e-09 mmol/kg.
Take `Cn1cc(CCN2CCC(c3c[nH]c4ccc(F)cc34)CC2)cn1` [Compound II, 5-fluoro-3-<1-<2-<1-methyl-1H-pyrazol-4-yl>ethyl>-4-piperidinyl>-1H-indole hydrochloride]: the “i.v. ID50” value stood at 8.6e-10 mmol/kg.
Under `CNS(=O)(=O)Cc1ccc2[nH]cc(CCN(C)C)c2c1.O=C(O)CCC(=O)O` [Compound I, 3-[2-(dimethylamino)ethyl]-N-methyl-1H-indole-5-methanesulfonamide butane-1,4-dioate (1:1)] stands 2.6e-08 mmol/kg.
Under `CCN(CC)C1CCc2cccc(Cl)c2C1.Cl` (centres unmarked) [Compound IV, 8-chloro-2-diethylamino-1,2,3,4-tetrahydronaphthalene hydrochloride] stands 1.2e-07 mmol/kg.
